From patent US20040063685A1, “Combination Drugs” (priority 2000, published 2004) come the findings set out here.

Structures are written as SMILES.

The conditions of data set [1]: crystals.
The subject of another data set is E. coli O111 strain. The data set can be described thus: Survival of mice intraperitoneally inoculated with E. coli O111, combined use with ceftazidime. The class given is in vivo. Particulars: FIG. 1. The procedure: The E. coli O111 strain was suspended in 5% mucin, and 0.5 ml thereof was intraperitoneally inoculated to mice (BALB/c, male, 5-week-old) (9×10^4 CFU per mouse). At 1 hr after inoculation, an antibacterial agent, ceftazidime (CAZ, 12.5 μg/kg) was administered subcutaneously, and compound 29 (test compound 30 mg/kg) of Reference Example B65 suspended in a 0.5% methyl cellulose (MC) solution was simultaneously administered orally.

Turning to `CCOC(=O)C1=CCCCC1S(=O)(=O)Nc1ccc(F)cc1Cl` (stereo not drawn) [crystals of compound B, d-ethyl 6-[N-(2-chloro-4-fluorophenyl)sulfamoyl]-1-cyclohexene-1-carboxylate], the hygroscopicity result in data set [1] is given as “low”.
In the case of `CCOC(=O)C1=CCCCC1S(=O)(=O)Nc1ccc(F)cc1Cl` (stereo not drawn) [compound 29, ethyl 6-[N-(2-chloro-4-fluorophenyl)sulfamoyl]-1-cyclohexene-1-carboxylate], the survival rate entry with E. coli O111 strain (combined use: compound 29 30 mg/kg orally (0.5% methyl cellulose) and ceftazidime (CAZ) 12.5 μg/kg subcutaneously at 1 hr after inoculation, BALB/c male mice, 9×10^4 CFU per mouse, monitored for a week) is listed as “remarkably increases”. Further, the “effectiveness of test compound alone (survival)” value in the data set with E. coli O111 strain (compound 29 30 mg/kg orally without ceftazidime, BALB/c mice infected with E. coli O111) is listed as “low effectiveness”.
